# Values of other authors, collected in patent publication US10456383B2, “Targeted approach in the management of Epidermolysis bullosa” (The Board of Trustees of the Leland Stanford Junior …, priority 2017, dated 2019).
# Experiments:
# [1] = topical formulations, all cases; standard serum levels required for immunosuppression 5-15 ng/ml
# [2] = ointment plasticized base containing no water (PCCA)
structure (smiles),measurement,setting,value
CO[C@H]1C[C@@H]2CC[C@@H](C)[C@@](O)(O2)C(=O)C(=O)N2CCCC[C@H]2C(=O)O[C@H]([C@H](C)C[C@@H]2CC[C@@H](O)[C@H](OC)C2)CC(=O)[C@H](C)/C=C(\C)[C@@H](O)[C@@H](OC)C(=O)[C@H](C)C[C@H](C)/C=C/C=C/C=C/1C [Sirolimus],systemic level of rapamycin,[1],less than 2 ng/ml
same,sirolimus stability,[2],at least 6 months
